Starred links: 1 amine or outer side, 2 acyl side, 3 side chain; linkers in the order of their positions; H or OH if unused. Positions of bridges follow the written chain, without caps; N, C: chain ends. Residues, ends and D or L forms follow the SMILES beside them. *: point of attachment. C20 diacid = O=C(O)CCCCCCCCCCCCCCCCCCC(=O)*; C18 diacid = O=C(O)CCCCCCCCCCCCCCCCC(=O)*; γGlu = O=C(O)[C@H](CCC(=O)[*:2])N[*:1]

The subject of the test is ad libitum fed rat. Put plainly: Assay (I) efficacy testing on appetite (food intake) using an ad libitum fed rat model. In kind it is in vivo, Sprague Dawley (SD) rats. A digest of the protocol: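 Ad libitum fed Sprague Dawley rats, 200-250 g, singly housed on reversed light cycle, got one ip, po or sc dose of 0.01-3 mg/kg just before lights off; groups of 5-8 with vehicle control. Food intake recorded hourly for 7 h, then at 24 h and sometimes 48 h; Grubbs outliers excluded.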

For the compound `CC[C@H](C)[C@H](NC(=O)[C@@H]1CCCN1C(=O)CNC(=O)[C@H](Cc1ccccc1)NC(=O)[C@H](CC(N)=O)NC(=O)[C@H](CC(N)=O)NC(=O)[C@H](CO)NC(=O)[C@H](CO)NC(=O)[C@H](Cc1c[nH]cn1)NC(=O)[C@H](Cc1c[nH]cn1)NC(=O)[C@H](CC(C)C)NC(=O)[C@H](Cc1ccccc1)NC(=O)[C@H](CCC(=O)O)NC(=O)[C@H](C)NC(=O)[C@H](CC(C)C)NC(=O)[C@H](CCCNC(=N)N)NC(=O)[C@H](CCC(N)=O)NC(=O)[C@@H](NC(=O)[C@H](C)NC(=O)[C@@H]1CSSC[C@H](NC(=O)[C@H](CCC(=O)O)NC(=O)CC[C@H](NC(=O)CCCCCCCCCCCCCCCCCCC(=O)O)C(=O)O)C(=O)N[C@@H](CC(N)=O)C(=O)N[C@@H]([C@@H](C)O)C(=O)N[C@@H](C)C(=O)N[C@@H]([C@@H](C)O)C(=O)N1)[C@@H](C)O)C(=O)N[C@@H](CC(C)C)C(=O)N1CCC[C@H]1C(=O)N1CCC[C@H]1C(=O)N[C@H](C(=O)N[C@@H](CC(N)=O)C(=O)N[C@H](C(=O)NCC(=O)N[C@@H](CO)C(=O)N[C@@H](CC(N)=O)C(=O)N[C@H](C(=O)N[C@@H](Cc1ccc(O)cc1)C(N)=O)[C@@H](C)O)C(C)C)[C@@H](C)O` [Example 29, N-alpha-[(S)-4-Carboxy-4-(19-carboxynonadecanoylamino)butyryl]-[Glu1,Glu14,His17]-pramlintide] ({C20 diacid-γGlu}-ECNTATCATQRLAEFLHHSSNNFGPILPPTNVGSNTY-NH2; disulfide 2-7 (inferred); C-terminus assumed), the “Food intake reduction 0-24 h 3 nmol/kg (%)” value (0-24 h) was 15%. In addition, for the setting “24-48 h”, the “Food intake reduction 24-48 h 3 nmol/kg (%)” value was determined as 5%.

With `CC[C@H](C)[C@H](NC(=O)[C@@H]1CCCN1C(=O)CNC(=O)[C@H](Cc1ccccc1)NC(=O)[C@H](CC(N)=O)NC(=O)[C@H](CC(N)=O)NC(=O)[C@H](CO)NC(=O)[C@H](CO)NC(=O)[C@H](Cc1c[nH]cn1)NC(=O)[C@H](Cc1c[nH]cn1)NC(=O)[C@H](CC(C)C)NC(=O)[C@H](Cc1ccccc1)NC(=O)[C@H](CCC(=O)O)NC(=O)[C@H](C)NC(=O)[C@H](CC(C)C)NC(=O)[C@H](CCCNC(=N)N)NC(=O)[C@H](CCC(N)=O)NC(=O)[C@@H](NC(=O)[C@H](C)NC(=O)[C@@H]1CSSC[C@H](NC(=O)[C@H](Cc2c[nH]cn2)NC(=O)CC[C@H](NC(=O)CCCCCCCCCCCCCCCCCCC(=O)O)C(=O)O)C(=O)N[C@@H](CC(N)=O)C(=O)N[C@@H]([C@@H](C)O)C(=O)N[C@@H](C)C(=O)N[C@@H]([C@@H](C)O)C(=O)N1)[C@@H](C)O)C(=O)N[C@@H](CC(C)C)C(=O)N1CCC[C@H]1C(=O)N1CCC[C@H]1C(=O)N[C@H](C(=O)N[C@@H](CC(N)=O)C(=O)N[C@H](C(=O)NCC(=O)N[C@@H](CO)C(=O)N[C@@H](CC(N)=O)C(=O)N[C@H](C(=O)N[C@@H](Cc1ccc(O)cc1)C(N)=O)[C@@H](C)O)C(C)C)[C@@H](C)O` [Example 18, N-alpha-[(S)-4-Carboxy-4-(19-carboxynonadecanoylamino)butyryl]-[His1,Glu14,His17]-pramlintide] ({C20 diacid-γGlu}-HCNTATCATQRLAEFLHHSSNNFGPILPPTNVGSNTY-NH2; disulfide 2-7), the “Food intake reduction 0-24 h 3 nmol/kg (%)” value (0-24 h) was found to be 40%. The “Food intake reduction 24-48 h 3 nmol/kg (%)” value (24-48 h) amounted to 32%.

As for `CC[C@H](C)[C@H](NC(=O)[C@@H]1CCCN1C(=O)CNC(=O)[C@H](Cc1ccccc1)NC(=O)[C@H](CC(N)=O)NC(=O)[C@H](CC(N)=O)NC(=O)[C@H](CO)NC(=O)[C@H](CO)NC(=O)[C@H](Cc1c[nH]cn1)NC(=O)[C@H](Cc1c[nH]cn1)NC(=O)[C@H](CC(C)C)NC(=O)[C@H](Cc1ccccc1)NC(=O)[C@H](CCC(=O)O)NC(=O)[C@H](C)NC(=O)[C@H](CC(C)C)NC(=O)[C@H](CCCNC(=N)N)NC(=O)[C@H](CCC(N)=O)NC(=O)[C@@H](NC(=O)[C@H](C)NC(=O)[C@@H]1CSSC[C@H](NC(=O)[C@H](Cc2c[nH]cn2)NC(=O)[C@H](Cc2c[nH]cn2)NC(=O)[C@H](Cc2c[nH]cn2)NC(=O)CC[C@H](NC(=O)CCCCCCCCCCCCCCCCCCC(=O)O)C(=O)O)C(=O)N[C@@H](CC(N)=O)C(=O)N[C@@H]([C@@H](C)O)C(=O)N[C@@H](C)C(=O)N[C@@H]([C@@H](C)O)C(=O)N1)[C@@H](C)O)C(=O)N[C@@H](CC(C)C)C(=O)N1CCC[C@H]1C(=O)N1CCC[C@H]1C(=O)N[C@H](C(=O)N[C@@H](CC(N)=O)C(=O)N[C@H](C(=O)NCC(=O)N[C@@H](CO)C(=O)N[C@@H](CC(N)=O)C(=O)N[C@H](C(=O)N[C@@H](Cc1ccc(O)cc1)C(N)=O)[C@@H](C)O)C(C)C)[C@@H](C)O` [Example 11, N-alpha-[(S)-4-Carboxy-4-(19-carboxynonadecanoylamino)butyryl]-His-His-[His1,Glu14,His17]-pramlintide] ({C20 diacid-γGlu}-HHHCNTATCATQRLAEFLHHSSNNFGPILPPTNVGSNTY-NH2; disulfide 4-9 (inferred); C-terminus assumed), where the note is “30 nmol/kg, 0-24 h”, the “Food intake reduction 0-24 h 30 nmol/kg (%)” value was determined as 87%. Besides, the “Food intake reduction 24-48 h 30 nmol/kg (%)” value (30 nmol/kg, 24-48 h) worked out at 92%.

On to `CC[C@H](C)[C@H](NC(=O)[C@@H]1CCCN1C(=O)CNC(=O)[C@H](Cc1ccccc1)NC(=O)[C@H](CC(N)=O)NC(=O)[C@H](CC(N)=O)NC(=O)[C@H](CO)NC(=O)[C@H](CO)NC(=O)[C@H](CCCNC(=N)N)NC(=O)[C@H](Cc1c[nH]cn1)NC(=O)[C@H](CC(C)C)NC(=O)[C@H](Cc1ccccc1)NC(=O)[C@H](CCC(=O)O)NC(=O)[C@H](C)NC(=O)[C@H](CC(C)C)NC(=O)[C@H](CCCNC(=N)N)NC(=O)[C@H](CCC(N)=O)NC(=O)[C@@H](NC(=O)[C@H](C)NC(=O)[C@@H]1CSSC[C@H](NC(=O)CC[C@H](NC(=O)CCCCCCCCCCCCCCCCCCC(=O)O)C(=O)O)C(=O)NCC(=O)N[C@@H]([C@@H](C)O)C(=O)N[C@@H](C)C(=O)N[C@@H]([C@@H](C)O)C(=O)N1)[C@@H](C)O)C(=O)N[C@@H](CC(C)C)C(=O)N1CCC[C@H]1C(=O)N1CCC[C@H]1C(=O)N[C@H](C(=O)N[C@@H](CCC(=O)O)C(=O)N[C@H](C(=O)NCC(=O)N[C@@H](CO)C(=O)NCC(=O)N[C@H](C(=O)N[C@@H](Cc1ccc(O)cc1)C(N)=O)[C@@H](C)O)C(C)C)[C@@H](C)O` [Example 3, N-alpha-[(S)-4-Carboxy-4-(19-carboxynonadecanoylamino)butyryl]-[des1,Gly3,Glu14,His17,Arg18,Glu31,Gly35]-pramlintide] ({C20 diacid-γGlu}-CGTATCATQRLAEFLHRSSNNFGPILPPTEVGSGTY-NH2; disulfide 1-6), for which, where the note is “0-24 h”, the “Food intake reduction 0-24 h 3 nmol/kg (%)” value was 37%. In addition, the “Food intake reduction 24-48 h 3 nmol/kg (%)” value (24-48 h) is reported as 32%.

With `CC[C@H](C)[C@H](NC(=O)[C@@H]1CCCN1C(=O)CNC(=O)[C@H](Cc1ccccc1)NC(=O)[C@H](CC(N)=O)NC(=O)[C@H](CC(N)=O)NC(=O)[C@H](CO)NC(=O)[C@H](CO)NC(=O)[C@H](Cc1c[nH]cn1)NC(=O)[C@H](Cc1c[nH]cn1)NC(=O)[C@H](CC(C)C)NC(=O)[C@H](Cc1ccccc1)NC(=O)[C@H](CCC(=O)O)NC(=O)[C@H](C)NC(=O)[C@H](CC(C)C)NC(=O)[C@H](CCCNC(=N)N)NC(=O)[C@H](CCC(N)=O)NC(=O)[C@@H](NC(=O)[C@H](C)NC(=O)[C@@H]1CSSC[C@H](NC(=O)[C@H](CCCCN)NC(=O)[C@H](CCC(=O)O)NC(=O)CC[C@H](NC(=O)CCCCCCCCCCCCCCCCC(=O)O)C(=O)O)C(=O)N[C@@H](CC(N)=O)C(=O)N[C@@H]([C@@H](C)O)C(=O)N[C@@H](C)C(=O)N[C@@H]([C@@H](C)O)C(=O)N1)[C@@H](C)O)C(=O)N[C@@H](CC(C)C)C(=O)N1CCC[C@H]1C(=O)N1CCC[C@H]1C(=O)N[C@H](C(=O)N[C@@H](CC(N)=O)C(=O)N[C@H](C(=O)NCC(=O)N[C@@H](CO)C(=O)N[C@@H](CC(N)=O)C(=O)N[C@H](C(=O)N[C@@H](Cc1ccc(O)cc1)C(N)=O)[C@@H](C)O)C(C)C)[C@@H](C)O` [Example 42, N-alpha-[(S)-4-Carboxy-4-(17-carboxyheptadecanoylamino)butyryl]-Glu-[Glu14,His17]-pramlintide] ({C18 diacid-γGlu}-EKCNTATCATQRLAEFLHHSSNNFGPILPPTNVGSNTY-NH2; disulfide 3-8), the “Food intake reduction 0-24 h 3 nmol/kg (%)” value (0-24 h) amounted to 45%. Further, the “Food intake reduction 24-48 h 3 nmol/kg (%)” value (24-48 h) stood at 5%.

For the compound `CC[C@H](C)[C@H](NC(=O)[C@@H]1CCCN1C(=O)CNC(=O)[C@H](Cc1ccccc1)NC(=O)[C@H](CC(N)=O)NC(=O)[C@H](CC(N)=O)NC(=O)[C@H](CO)NC(=O)[C@H](CO)NC(=O)[C@H](CCCNC(=N)N)NC(=O)[C@H](Cc1c[nH]cn1)NC(=O)[C@H](CC(C)C)NC(=O)[C@H](Cc1ccccc1)NC(=O)[C@H](CCC(=O)O)NC(=O)[C@H](C)NC(=O)[C@H](CC(C)C)NC(=O)[C@H](CCCNC(=N)N)NC(=O)[C@H](CCC(N)=O)NC(=O)[C@@H](NC(=O)[C@H](C)NC(=O)[C@@H]1CSSC[C@H](NC(=O)[C@H](CCC(=O)O)NC(=O)CC[C@H](NC(=O)CCCCCCCCCCCCCCCCCCC(=O)O)C(=O)O)C(=O)N[C@@H](CC(N)=O)C(=O)N[C@@H]([C@@H](C)O)C(=O)N[C@@H](C)C(=O)N[C@@H]([C@@H](C)O)C(=O)N1)[C@@H](C)O)C(=O)N[C@@H](CC(C)C)C(=O)N1CCC[C@H]1C(=O)N1CCC[C@H]1C(=O)N[C@H](C(=O)N[C@@H](CC(N)=O)C(=O)N[C@H](C(=O)NCC(=O)N[C@@H](CO)C(=O)N[C@@H](CC(N)=O)C(=O)N[C@H](C(=O)N1CCC[C@H]1C(N)=O)[C@@H](C)O)C(C)C)[C@@H](C)O` [Example 10, N-alpha-[(S)-4-Carboxy-4-(19-carboxynonadecanoylamino)butyryl]-[Glu1,Glu14,His17,Arg18,Pro37]-pramlintide] ({C20 diacid-γGlu}-ECNTATCATQRLAEFLHRSSNNFGPILPPTNVGSNTP-NH2; disulfide 2-7 (inferred)), the “Food intake reduction 0-24 h 3 nmol/kg (%)” value (0-24 h) is 50%. Also, the “Food intake reduction 24-48 h 3 nmol/kg (%)” value (24-48 h) is recorded as 40%.

These data come from patent publication US8741836B2, “Polypeptides” (Novo Nordisk A/S, priority 2011, dated 2014).
